Where a SMILES comes first, the peptide text is derived from it.
Legend:
Type in all cases: cell-based
human GIP receptor [1] = molecular target: T1, human GIP receptor (Homo sapiens, UniProt P48546); experiment: cAMP agonism (CisBio cAMP Dynamic 2 HTRF assay); settings: HEK293, read-out: cAMP agonism, % Efficacy, Table 1C, HEK-293 cells
T1 sequence (P48546 22-466): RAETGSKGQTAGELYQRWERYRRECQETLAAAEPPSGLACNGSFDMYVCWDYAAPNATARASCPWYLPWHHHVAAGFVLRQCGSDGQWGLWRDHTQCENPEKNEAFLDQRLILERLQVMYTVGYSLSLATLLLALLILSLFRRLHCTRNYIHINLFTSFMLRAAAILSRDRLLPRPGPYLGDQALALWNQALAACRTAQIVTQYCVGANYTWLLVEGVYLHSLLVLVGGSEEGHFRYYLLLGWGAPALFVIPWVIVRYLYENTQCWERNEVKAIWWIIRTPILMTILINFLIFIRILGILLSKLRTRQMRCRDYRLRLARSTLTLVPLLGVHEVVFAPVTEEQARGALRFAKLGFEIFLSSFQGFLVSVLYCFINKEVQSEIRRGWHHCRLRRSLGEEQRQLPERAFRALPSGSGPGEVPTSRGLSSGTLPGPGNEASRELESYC
Method: To test for agonistic properties at the GIP receptor, compounds were diluted and added to cells as described above and incubated for 30 min at 37° C. The resulting increase in intracellular cAMP was determined using the CisBio cAMP Dynamic 2 HTRF Assay Kit as described above.

human GIP receptor [2] = molecular target: T1, human GIP receptor; experiment: cAMP antagonism (CisBio cAMP Dynamic 2 HTRF assay); design: pCMV-Script vector; settings: Table 1C, CisBio, HEK-293 cells; for IC50: cAMP antagonism, nM (IC50), agonist GIP1-42 at EC50
In short: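 Four-parameter fits of cAMP dose-response gave pIC50. cAMP fall was quantified by HTRF competition, ratio 665/620 nm after 60 min at room temperature, against a cAMP standard curve.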

human GIP receptor [3] = molecular target: T1, human GIP receptor; experiment: cAMP accumulation, antagonism (DiscoveRx HitHunter cAMP XS assay); design: host or cells: COS-7 (transient, calcium phosphate; pCMV-Script vector); settings: Table 1B, DiscoveRx; for cAMP antagonism, % inhib: COS-7 cells, % inhibition of Emax; for IC50: cAMP antagonism, nM (IC50), transiently transfected COS-7 cells
In short: (§1)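 cAMP accumulation measured by HitHunter cAMP XS in COS-7 cells transiently expressing human GIP receptor, after 30 min in HBS with 1 mM IBMX at 37 °C. Antagonists preincubated 10 min before GIP giving 50-80% of maximum, then 20 min more; agonist mode used 30 min ligand exposure.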

human GIP receptor [4] = molecular target: T1, human GIP receptor; experiment: cAMP accumulation, agonism (DiscoveRx HitHunter cAMP XS assay); design: host or cells: COS-7 (transient, calcium phosphate; pCMV-Script vector); settings: Table 1B; DiscoveRx; COS-7 cells
In short: as §1

Structure (SMILES)	Emax (human GIP receptor [1]) [%]	cAMP antagonism, % inhib (human GIP receptor [2]) [%]	IC50 (human GIP receptor [2]) [nM]	cAMP antagonism, % inhib (human GIP receptor [3]) [%]	IC50 (human GIP receptor [3]) [nM]	cAMP agonism, Emax (human GIP receptor [4])
CC[C@H](C)[C@H](NC(=O)[C@H](CO)NC(=O)[C@H](Cc1ccc(O)cc1)NC(=O)[C@H](CC(=O)O)NC(=O)[C@H](CO)NC(=O)[C@@H](NC(=O)[C@H](Cc1ccccc1)NC(=O)[C@@H](NC(=O)CNC(=O)[C@@H](N)CO)[C@@H](C)O)[C@@H](C)CC)C(=O)N[C@@H](C)C(=O)N[C@@H](CCSC)C(=O)N[C@@H](CC(=O)O)C(=O)N[C@@H](CCCNC(=N)N)C(=O)N[C@H](C(=O)N[C@@H](CCCCNC(=O)CC[C@H](NC(=O)CCCCCCCCCCCCCCC(=O)O)C(=O)O)C(=O)N[C@@H](CCC(N)=O)C(=O)N[C@@H](CCC(N)=O)C(=O)N[C@@H](CC(=O)O)C(=O)N[C@@H](Cc1ccccc1)C(=O)N[C@H](C(=O)N[C@@H](CC(N)=O)C(=O)N[C@@H](Cc1c[nH]c2ccccc12)C(=O)N[C@@H](CC(C)C)C(=O)N[C@@H](CC(C)C)C(=O)N[C@@H](C)C(=O)N[C@@H](CCC(N)=O)C(=O)N[C@@H](CCCNC(=N)N)C(N)=O)C(C)C)[C@@H](C)CC [AT504] (HELM PEPTIDE1{S.G.T.F.I.S.D.Y.S.I.A.M.D.R.I.K.Q.Q.D.F.V.N.W.L.L.A.Q.R.[am]}|PEPTIDE2{[O=C(O)CCCCCCCCCCCCCCC(=O)[*:2]].[gGlu]}$PEPTIDE1,PEPTIDE2,16:R3-2:R2$$$V2.0; N-terminus assumed)	0	85	39.8	90	21	No Agonism
CC[C@H](C)[C@H](NC(=O)[C@H](CO)NC(=O)[C@H](Cc1ccc(O)cc1)NC(=O)[C@H](CC(=O)O)NC(=O)[C@H](CO)NC(=O)[C@@H](NC(=O)[C@H](Cc1ccccc1)NC(=O)[C@@H](NC(=O)CNC(=O)[C@@H]1CCCN1)[C@@H](C)O)[C@@H](C)CC)C(=O)N[C@@H](C)C(=O)N[C@@H](CCSC)C(=O)N[C@@H](CC(=O)O)C(=O)N[C@@H](CCCNC(=N)N)C(=O)N[C@H](C(=O)N[C@@H](CCCCNC(=O)CC[C@H](NC(=O)CCCCCCCCCCCCCCC(=O)O)C(=O)O)C(=O)N[C@@H](CCC(N)=O)C(=O)N[C@@H](CCC(N)=O)C(=O)N[C@@H](CC(=O)O)C(=O)N[C@@H](Cc1ccccc1)C(=O)N[C@H](C(=O)N[C@@H](CC(N)=O)C(=O)N[C@@H](Cc1c[nH]c2ccccc12)C(=O)N[C@@H](CC(C)C)C(=O)N[C@@H](CC(C)C)C(=O)N[C@@H](C)C(=O)N[C@@H](CCC(N)=O)C(=O)N[C@@H](CCCNC(=N)N)C(N)=O)C(C)C)[C@@H](C)CC [AT506] (HELM PEPTIDE1{P.G.T.F.I.S.D.Y.S.I.A.M.D.R.I.K.Q.Q.D.F.V.N.W.L.L.A.Q.R.[am]}|PEPTIDE2{[O=C(O)CCCCCCCCCCCCCCC(=O)[*:2]].[gGlu]}$PEPTIDE1,PEPTIDE2,16:R3-2:R2$$$V2.0; N-terminus assumed)	5	78	–	90	91	No Agonism
CC[C@H](C)[C@H](NC(=O)[C@H](CO)NC(=O)[C@H](Cc1ccc(O)cc1)NC(=O)[C@H](CC(=O)O)NC(=O)[C@H](CO)NC(=O)[C@@H](NC(=O)[C@H](Cc1ccccc1)NC(=O)[C@@H](NC(=O)CNC(=O)CN)[C@@H](C)O)[C@@H](C)CC)C(=O)N[C@@H](C)C(=O)N[C@@H](CCSC)C(=O)N[C@@H](CC(=O)O)C(=O)N[C@@H](CCCNC(=N)N)C(=O)N[C@H](C(=O)N[C@@H](CCCCNC(=O)COCCOCCNC(=O)CC[C@H](NC(=O)CCCCCCCCCCCCCCC(=O)O)C(=O)O)C(=O)N[C@@H](CCC(N)=O)C(=O)N[C@@H](CCC(N)=O)C(=O)N[C@@H](CC(=O)O)C(=O)N[C@@H](Cc1ccccc1)C(=O)N[C@H](C(=O)N[C@@H](CC(N)=O)C(=O)N[C@@H](Cc1c[nH]c2ccccc12)C(=O)N[C@@H](CC(C)C)C(=O)N[C@@H](CC(C)C)C(=O)N[C@@H](C)C(=O)N[C@@H](CCC(N)=O)C(=O)N[C@@H](CCCNC(=N)N)C(N)=O)C(C)C)[C@@H](C)CC [AT508] (HELM PEPTIDE1{G.G.T.F.I.S.D.Y.S.I.A.M.D.R.I.K.Q.Q.D.F.V.N.W.L.L.A.Q.R.[am]}|PEPTIDE2{[O=C(O)CCCCCCCCCCCCCCC(=O)[*:2]].[gGlu].[O=C(COCCOCCN[*:1])[*:2]]}$PEPTIDE1,PEPTIDE2,16:R3-3:R2$$$V2.0; N-terminus assumed)	0	89	–	100	23	No Agonism
CC[C@H](C)[C@H](NC(=O)[C@H](CO)NC(=O)[C@H](Cc1ccc(O)cc1)NC(=O)[C@H](CC(=O)O)NC(=O)[C@H](CO)NC(=O)[C@@H](NC(=O)[C@H](Cc1ccccc1)NC(=O)[C@@H](NC(=O)CNC(=O)[C@@H](N)CO)[C@@H](C)O)[C@@H](C)CC)C(=O)N[C@@H](C)C(=O)N[C@@H](CCSC)C(=O)N[C@@H](CC(=O)O)C(=O)N[C@@H](CCCNC(=N)N)C(=O)N[C@H](C(=O)N[C@@H](CCCCNC(=O)COCCOCCNC(=O)CC[C@H](NC(=O)CCCCCCCCCCCCCCC(=O)O)C(=O)O)C(=O)N[C@@H](CCC(N)=O)C(=O)N[C@@H](CCC(N)=O)C(=O)N[C@@H](CC(=O)O)C(=O)N[C@@H](Cc1ccccc1)C(=O)N[C@H](C(=O)N[C@@H](CC(N)=O)C(=O)N[C@@H](Cc1c[nH]c2ccccc12)C(=O)N[C@@H](CC(C)C)C(=O)N[C@@H](CC(C)C)C(=O)N[C@@H](C)C(=O)N[C@@H](CCC(N)=O)C(=O)N[C@@H](CCCNC(=N)N)C(N)=O)C(C)C)[C@@H](C)CC [AT510] (HELM PEPTIDE1{S.G.T.F.I.S.D.Y.S.I.A.M.D.R.I.K.Q.Q.D.F.V.N.W.L.L.A.Q.R.[am]}|PEPTIDE2{[O=C(O)CCCCCCCCCCCCCCC(=O)[*:2]].[gGlu].[O=C(COCCOCCN[*:1])[*:2]]}$PEPTIDE1,PEPTIDE2,16:R3-3:R2$$$V2.0; N-terminus assumed)	2	87	58.4	100	–	No Agonism
CC[C@H](C)[C@H](NC(=O)[C@H](CO)NC(=O)[C@H](Cc1ccc(O)cc1)NC(=O)[C@H](CC(=O)O)NC(=O)[C@H](CO)NC(=O)[C@@H](NC(=O)[C@H](Cc1ccccc1)NC(=O)[C@@H](NC(=O)CNC(=O)[C@@H]1CCCN1)[C@@H](C)O)[C@@H](C)CC)C(=O)N[C@@H](C)C(=O)N[C@@H](CCSC)C(=O)N[C@@H](CC(=O)O)C(=O)N[C@@H](CCCNC(=N)N)C(=O)N[C@H](C(=O)N[C@@H](CCCCNC(=O)COCCOCCNC(=O)CC[C@H](NC(=O)CCCCCCCCCCCCCCC(=O)O)C(=O)O)C(=O)N[C@@H](CCC(N)=O)C(=O)N[C@@H](CCC(N)=O)C(=O)N[C@@H](CC(=O)O)C(=O)N[C@@H](Cc1ccccc1)C(=O)N[C@H](C(=O)N[C@@H](CC(N)=O)C(=O)N[C@@H](Cc1c[nH]c2ccccc12)C(=O)N[C@@H](CC(C)C)C(=O)N[C@@H](CC(C)C)C(=O)N[C@@H](C)C(=O)N[C@@H](CCC(N)=O)C(=O)N[C@@H](CCCNC(=N)N)C(N)=O)C(C)C)[C@@H](C)CC [AT512] (HELM PEPTIDE1{P.G.T.F.I.S.D.Y.S.I.A.M.D.R.I.K.Q.Q.D.F.V.N.W.L.L.A.Q.R.[am]}|PEPTIDE2{[O=C(O)CCCCCCCCCCCCCCC(=O)[*:2]].[gGlu].[O=C(COCCOCCN[*:1])[*:2]]}$PEPTIDE1,PEPTIDE2,16:R3-3:R2$$$V2.0; N-terminus assumed)	0	73	79.4	80	–	No Agonism

From US12187773B2, “Modified GIP peptide analogues” (Antag Therapeutics ApS, priority 2018, dated 2025)
